Legend:
Assay in all cases: relative viability (nuclei count vs DMSO), 5 days (fraction); higher = more cells survive
LCLC-103H = system: LCLC-103H
Outline: (§1)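 Nuclei were stained with Hoechst during a one-step fixation (final 0.05% Triton X-100, 1% formaldehyde, 1 ug/ml Hoechst) carried out 5 days after dosing, then counted on 4× images. The cells, lung cancer lines in 1536-well plates, had been dosed by pin tool the day after seeding with one drug alone or a fixed anchor-drug dose plus five library-drug doses (not always all listed) in √10 steps. Relative viability is the nuclei count in treated wells divided by that in vehicle wells, and each value is the median of duplicate plates.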

LXF-289 = system: LXF-289
Outline: as §1

NCI-H1355 = system: NCI-H1355
Outline: as §1

NCI-H1651 = system: NCI-H1651
Outline: as §1

NCI-H1755 = system: NCI-H1755
Outline: as §1

NCI-H1792 = system: NCI-H1792
Outline: as §1

NCI-H1915 = system: NCI-H1915
Outline: as §1

NCI-H2347 = system: NCI-H2347
Outline: as §1

NCI-H3122 = system: NCI-H3122
Outline: as §1

NCI-H322M = system: NCI-H322M
Outline: as §1

NCI-H441 = system: NCI-H441
Outline: as §1

Compound O=c1cc(N2CCOCC2)oc2c(-c3cccc4c3sc3ccccc34)cccc12 + O=C(c1cc(Cc2n[nH]c(=O)c3ccccc23)ccc1F)N1CCN(C(=O)C2CC2)CC1 [Olaparib] (partner 8 µM) has a relative viability (LCLC-103H; first compound 0.01 µM) of 0.718, a relative viability (LCLC-103H; first compound 0.03162 µM) of 0.786 and a relative viability (LCLC-103H; first compound 0.1 µM) of 0.771. For the same compound, the relative viability (LCLC-103H; first compound 0.3162 µM) was 0.707, the relative viability (LCLC-103H; first compound 1 µM) was 0.749 and the relative viability (LXF-289; first compound 0.01 µM) was 1.01. For the same compound, the relative viability (LXF-289; first compound 0.03162 µM) was 1.08, the relative viability (LXF-289; first compound 0.1 µM) was 1.08 and the relative viability (LXF-289; first compound 0.3162 µM) was 1.03. The relative viability (LXF-289; first compound 1 µM) was 1.11, the relative viability (NCI-H1355; first compound 0.01 µM) was 0.712 and the relative viability (NCI-H1355; first compound 0.03162 µM) was 0.675. The relative viability (NCI-H1355; first compound 0.1 µM) was 0.711, the relative viability (NCI-H1355; first compound 0.3162 µM) was 0.709 and the relative viability (NCI-H1355; first compound 1 µM) was 0.743. For the same compound, the relative viability (NCI-H1651; first compound 0.01 µM) was 0.19, the relative viability (NCI-H1651; first compound 0.03162 µM) was 0.188 and the relative viability (NCI-H1651; first compound 0.1 µM) was 0.179. For the same compound, the relative viability (NCI-H1651; first compound 0.3162 µM) was 0.178, the relative viability (NCI-H1651; first compound 1 µM) was 0.168 and the relative viability (NCI-H1755; first compound 0.01 µM) was 0.896. For the same compound, the relative viability (NCI-H1755; first compound 0.03162 µM) was 0.891, the relative viability (NCI-H1755; first compound 0.1 µM) was 0.869 and the relative viability (NCI-H1755; first compound 0.3162 µM) was 0.848. It also gave a relative viability (NCI-H1755; first compound 1 µM) of 0.883, a relative viability (NCI-H1792; first compound 0.01 µM) of 0.445 and a relative viability (NCI-H1792; first compound 0.03162 µM) of 0.465. It also gave a relative viability (NCI-H1792; first compound 0.3162 µM) of 0.403, a relative viability (NCI-H1792; first compound 1 µM) of 0.405 and a relative viability (NCI-H1915; first compound 0.01 µM) of 0.258. It also gave a relative viability (NCI-H1915; first compound 0.03162 µM) of 0.269, a relative viability (NCI-H1915; first compound 0.1 µM) of 0.301 and a relative viability (NCI-H1915; first compound 0.3162 µM) of 0.26. It also gave a relative viability (NCI-H1915; first compound 1 µM) of 0.262, a relative viability (NCI-H2347; first compound 0.01 µM) of 0.597 and a relative viability (NCI-H2347; first compound 0.03162 µM) of 0.541. For the same compound, the relative viability (NCI-H2347; first compound 0.1 µM) was 0.553, the relative viability (NCI-H2347; first compound 0.3162 µM) was 0.621 and the relative viability (NCI-H2347; first compound 1 µM) was 0.551. The relative viability (NCI-H3122; first compound 0.01 µM) was 0.604, the relative viability (NCI-H3122; first compound 0.03162 µM) was 0.679 and the relative viability (NCI-H3122; first compound 0.1 µM) was 0.566. It also gave a relative viability (NCI-H3122; first compound 0.3162 µM) of 0.606, a relative viability (NCI-H3122; first compound 1 µM) of 0.614 and a relative viability (NCI-H322M; first compound 0.01 µM) of 0.688. It also gave a relative viability (NCI-H322M; first compound 0.03162 µM) of 0.827, a relative viability (NCI-H322M; first compound 0.3162 µM) of 0.73 and a relative viability (NCI-H322M; first compound 1 µM) of 0.725. The relative viability (NCI-H441; first compound 0.01 µM) was 0.485, the relative viability (NCI-H441; first compound 0.03162 µM) was 0.48 and the relative viability (NCI-H441; first compound 0.1 µM) was 0.643.

Reference: the supplement of paper PMC10307832
